# According to PubChem BioAssay AID2060887 (Molecular Pharmacology Branch, DTP, NCI, 2025):
# “And” between values parts separate entries of the source, which are not always exact repeats. Equal entries are not always repeated.
# Tested on: 782815-120-R-J1-PDC complex spheroid viability
# Assay: Anticancer human tumor 782815-120-R-J1-PDC patient-derived colon adenocarcinoma cell line growth inhibition [RAS]
# Details: for viability, T/C: stronger effect = lower value
# How it was run: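 Tumour cells grown as complex spheroids with HUVEC endothelial cells and mesenchymal stem cells, treated with RAS pathway inhibitor combinations. Each agent spans half-log steps from near clinical Cmax, or 10 microM where Cmax is unknown.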
# 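Also: spheroids exposed to compounds for 7 days before reading.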
# 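For viability, T/C in this document: 100% = DMSO vehicle control viability.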
smiles,measurement,setting,value
CC(=O)OC12COC1CC(O)C1(C)C(=O)C(O)C3=C(C)C(OC(=O)C(O)C(NC(=O)OC(C)(C)C)c4ccccc4)CC(O)(C(OC(=O)c4ccccc4)C21)C3(C)C (stereo not drawn) + C#Cc1c(F)ccc2cc(O)cc(-c3ncc4c(N5CC6CCC(C5)N6)nc(OCC56CCCN5CC(F)C6)nc4c3F)c12,IC50,"curve of first compound, second compound 0.0316 µM",< 0.0316 µM
same,IC50,"curve of first compound, second compound 0.1 µM",< 0.0316 µM
same,IC50,"curve of first compound, second compound 0.316 µM",< 0.0316 µM
same,IC50,"curve of first compound, second compound 1 µM",< 0.0316 µM
same,IC50,"curve of first compound, second compound 3.16 µM",< 0.0316 µM
same,IC50,"curve of first compound, second compound 10 µM",< 0.0316 µM
same,"viability, T/C","second compound 0.0316 µM, first compound 0.0316 µM",34.4%
same,"viability, T/C","second compound 0.0316 µM, first compound 0.1 µM",32.9%
same,"viability, T/C","second compound 0.0316 µM, first compound 0.316 µM",30.1%
same,"viability, T/C","second compound 0.0316 µM, first compound 1 µM",24.4%
same,"viability, T/C","second compound 0.0316 µM, first compound 3.16 µM",30.8%
same,"viability, T/C","second compound 0.0316 µM, first compound 10 µM",34.9%
same,"viability, T/C","second compound 0.1 µM, first compound 0.0316 µM",39.7%
same,"viability, T/C","second compound 0.1 µM, first compound 0.1 µM",34.5%
same,"viability, T/C","second compound 0.1 µM, first compound 0.316 µM",29.2%
same,"viability, T/C","second compound 0.1 µM, first compound 1 µM",21.6%
same,"viability, T/C","second compound 0.1 µM, first compound 3.16 µM",32.2%
same,"viability, T/C","second compound 0.1 µM, first compound 10 µM",31%
same,"viability, T/C","second compound 0.316 µM, first compound 0.0316 µM",38.8%
same,"viability, T/C","second compound 0.316 µM, first compound 0.1 µM",33.4%
same,"viability, T/C","second compound 0.316 µM, first compound 0.316 µM",25.9%
same,"viability, T/C","second compound 0.316 µM, first compound 1 µM",28.6%
same,"viability, T/C","second compound 0.316 µM, first compound 3.16 µM",31.9%
same,"viability, T/C","second compound 0.316 µM, first compound 10 µM",29.5%
same,"viability, T/C","second compound 1 µM, first compound 0.0316 µM",36.5%
same,"viability, T/C","second compound 1 µM, first compound 0.1 µM",32.3%
same,"viability, T/C","second compound 1 µM, first compound 0.316 µM",30.5%
same,"viability, T/C","second compound 1 µM, first compound 1 µM",27.2%
same,"viability, T/C","second compound 1 µM, first compound 3.16 µM",33.7%
same,"viability, T/C","second compound 1 µM, first compound 10 µM",33.4%
same,"viability, T/C","second compound 3.16 µM, first compound 0.0316 µM",35.4%
same,"viability, T/C","second compound 3.16 µM, first compound 0.1 µM",34.4%
same,"viability, T/C","second compound 3.16 µM, first compound 0.316 µM",35.5%
same,"viability, T/C","second compound 3.16 µM, first compound 1 µM",27.5%
same,"viability, T/C","second compound 3.16 µM, first compound 3.16 µM",28.3%
same,"viability, T/C","second compound 3.16 µM, first compound 10 µM",34.2%
same,"viability, T/C","second compound 10 µM, first compound 0.0316 µM",35.7%
same,"viability, T/C","second compound 10 µM, first compound 0.1 µM",29.2%
same,"viability, T/C","second compound 10 µM, first compound 0.316 µM",26.8%
same,"viability, T/C","second compound 10 µM, first compound 1 µM",36%
same,"viability, T/C","second compound 10 µM, first compound 3.16 µM",29.9%
same,"viability, T/C","second compound 10 µM, first compound 10 µM",32.8%
CC(C)NCC(C(=O)N1CCN(c2ncnc3c2C(C)CC3O)CC1)c1ccc(Cl)cc1 (stereo not drawn),"viability, T/C",compound 0.0316 µM,106% [middle of 4 runs]
same,"viability, T/C",compound 0.1 µM,98.9% [middle of 4 runs]
same,"viability, T/C",compound 0.316 µM,104% (2×) and 101% and 91.7%
same,"viability, T/C",compound 1 µM,96% [middle of 4 runs]
same,"viability, T/C",compound 3.16 µM,101% [middle of 4 runs]
same,"viability, T/C",compound 10 µM,104% [middle of 4 runs]
same,IC50,curve of compound,> 10 µM
CC(C)n1nc(-c2ccc3oc(N)nc3c2)c2c(N)ncnc21,"viability, T/C",compound 0.000316 µM,98.8% [middle of 4 runs]
same,"viability, T/C",compound 0.001 µM,97.7% [middle of 4 runs]
same,"viability, T/C",compound 0.00316 µM,93.8% [middle of 4 runs]
same,"viability, T/C",compound 0.01 µM,90.3% [middle of 4 runs]
same,"viability, T/C",compound 0.0316 µM,95.5% [middle of 4 runs]
same,"viability, T/C",compound 0.1 µM,83.7% [middle of 4 runs]
same,IC50,curve of compound,> 0.1 µM
CC1(C)CCC(Nc2ncc(C(F)(F)F)c(-c3c[nH]c4c(P(C)(C)=O)c(C#N)ccc34)n2)CN1 (stereo not drawn) + CCn1c(-c2cc(N3CCN(C)CC3)cnc2C(C)OC)c2c3cc(ccc31)-c1csc(n1)CC(NC(=O)C1CC1C)C(=O)N1CCCC(N1)C(=O)OCC(C)(C)C2,IC50,"curve of first compound, second compound 0.000949 µM",0.0146 µM
same,IC50,"curve of first compound, second compound 0.003 µM",0.0024 µM
same,IC50,"curve of first compound, second compound 0.00949 µM",< 0.000949 µM
same,IC50,"curve of first compound, second compound 0.03 µM",< 0.000949 µM
same,IC50,"curve of first compound, second compound 0.0949 µM",< 0.000949 µM
same,IC50,"curve of first compound, second compound 0.3 µM",< 0.000949 µM
same,"viability, T/C","second compound 0.000949 µM, first compound 0.000949 µM",65.1%
same,"viability, T/C","second compound 0.000949 µM, first compound 0.003 µM",61.3%
same,"viability, T/C","second compound 0.000949 µM, first compound 0.00949 µM",54.6%
same,"viability, T/C","second compound 0.000949 µM, first compound 0.03 µM",43%
same,"viability, T/C","second compound 0.000949 µM, first compound 0.0949 µM",36.9%
same,"viability, T/C","second compound 0.000949 µM, first compound 0.3 µM",39.2%
same,"viability, T/C","second compound 0.003 µM, first compound 0.000949 µM",52.9%
same,"viability, T/C","second compound 0.003 µM, first compound 0.003 µM",54%
same,"viability, T/C","second compound 0.003 µM, first compound 0.00949 µM",44.6%
same,"viability, T/C","second compound 0.003 µM, first compound 0.03 µM",31.3%
same,"viability, T/C","second compound 0.003 µM, first compound 0.0949 µM",34.4%
same,"viability, T/C","second compound 0.003 µM, first compound 0.3 µM",34.2%
same,"viability, T/C","second compound 0.00949 µM, first compound 0.000949 µM",30.3%
same,"viability, T/C","second compound 0.00949 µM, first compound 0.003 µM",30.4%
same,"viability, T/C","second compound 0.00949 µM, first compound 0.00949 µM",25.7%
same,"viability, T/C","second compound 0.00949 µM, first compound 0.03 µM",22.8%
same,"viability, T/C","second compound 0.00949 µM, first compound 0.0949 µM",19.2%
same,"viability, T/C","second compound 0.00949 µM, first compound 0.3 µM",23.6%
same,"viability, T/C","second compound 0.03 µM, first compound 0.000949 µM",18.7%
same,"viability, T/C","second compound 0.03 µM, first compound 0.003 µM",18.3%
same,"viability, T/C","second compound 0.03 µM, first compound 0.00949 µM",15.3%
same,"viability, T/C","second compound 0.03 µM, first compound 0.03 µM",14%
same,"viability, T/C","second compound 0.03 µM, first compound 0.0949 µM",13%
same,"viability, T/C","second compound 0.03 µM, first compound 0.3 µM",13.6%
same,"viability, T/C","second compound 0.0949 µM, first compound 0.000949 µM",15.6%
same,"viability, T/C","second compound 0.0949 µM, first compound 0.003 µM",15.6%
same,"viability, T/C","second compound 0.0949 µM, first compound 0.00949 µM",9.83%
same,"viability, T/C","second compound 0.0949 µM, first compound 0.03 µM",10.4%
same,"viability, T/C","second compound 0.0949 µM, first compound 0.0949 µM",10.7%
same,"viability, T/C","second compound 0.0949 µM, first compound 0.3 µM",8.29%
same,"viability, T/C","second compound 0.3 µM, first compound 0.000949 µM",16.3%
same,"viability, T/C","second compound 0.3 µM, first compound 0.003 µM",13.9%
same,"viability, T/C","second compound 0.3 µM, first compound 0.00949 µM",12.5%
same,"viability, T/C","second compound 0.3 µM, first compound 0.03 µM",9.35%
same,"viability, T/C","second compound 0.3 µM, first compound 0.0949 µM",7.69%
same,"viability, T/C","second compound 0.3 µM, first compound 0.3 µM",7.08%
